Like-named read-outs stand apart in the source and are kept apart here. Each block holds one molecule with its values, some of them ahead of it.
Experiments:
RLM GDH1 = RLM GDH1 (Rattus norvegicus, UniProt P10860); experiment: GDH reverse (aminating) reaction activity in rat liver mitochondria (RLM); format: biochemical; conditions: for Vmax at given ADP concentration: RLM GDH, pH 7.50, 37°C, 90 μg protein, MWC fit, representative experiment; for EC50: Hill equation; for Ki: saturating ADP, read-out: Ki GTP
Chain of RLM GDH1 (P10860 54-558): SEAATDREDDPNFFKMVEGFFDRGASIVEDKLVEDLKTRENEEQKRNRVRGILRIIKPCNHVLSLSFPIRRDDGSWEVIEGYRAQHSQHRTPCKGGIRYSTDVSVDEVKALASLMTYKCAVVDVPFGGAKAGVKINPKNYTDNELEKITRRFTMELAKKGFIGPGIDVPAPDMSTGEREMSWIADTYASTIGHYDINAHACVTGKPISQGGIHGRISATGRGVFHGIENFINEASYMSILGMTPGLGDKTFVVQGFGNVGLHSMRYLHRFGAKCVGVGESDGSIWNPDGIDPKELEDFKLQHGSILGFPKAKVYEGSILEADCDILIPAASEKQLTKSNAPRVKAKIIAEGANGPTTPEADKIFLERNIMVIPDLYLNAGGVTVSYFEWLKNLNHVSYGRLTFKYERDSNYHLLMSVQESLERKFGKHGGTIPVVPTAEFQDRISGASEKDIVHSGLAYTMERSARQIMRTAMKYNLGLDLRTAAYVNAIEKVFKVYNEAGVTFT
Method: (§1) Tightly coupled mitochondria were isolated from fed-rat liver (RLM) and AS-30D cells (HepM) as described elsewhere ([89], [90]). […] The resulting mitochondrial fractions were resuspended at 30 to 80 mg protein/mL in SHE buffer with 1 mM PMSF, 1 mM EDTA, 5 mM DTT, and 10% glycerol, and stored at −70°C until use for determination of enzyme activity and Western blotting.

[1] = system: recombinant human GDH isoforms (GDH1 and GDH2), bovine liver GDH, Ox brain GDH, dogfish liver GDH, rat brain GDH, and bovine brain GDH isoforms; set-up: method as in PMID 4381532, PMID 7588764, PMID 17924438, PMID 23420347, PMID 7190024; conditions: pH range of 7.4–8.7, cited from earlier work
HepM GDH1 = HepM GDH1 (Rattus norvegicus, UniProt P10860); experiment: GDH reverse (aminating) reaction activity in hepatoma mitochondria (HepM); format: biochemical; conditions: for Vmax at given ADP concentration: HepM GDH, pH 7.50, 37°C, 280 μg protein, MWC fit, representative experiment; for EC50: Hill equation; for Ki: saturating ADP, read-out: Ki GTP
Chain of HepM GDH1 (P10860 54-558): as above
Method: as §1

GDH in HepM and RLM = GDH in HepM and RLM (Rattus norvegicus, UniProt P10860); experiment: GDH reverse reaction kinetics, summary statements for HepM and RLM; format: biochemical; conditions: summary of Table 2
Chain of GDH in HepM and RLM (P10860 54-558): as above
Method: (§2) The decrease in the absorbance at 340 nm was followed for several minutes (~10 min) to allow for full development of the pronounced enzyme hysteretic behavior, although the initial signal decrease (1–3 min) was taken to calculate the GDH rates. The protein concentration ranges used for each mitochondrial type were well within the linearity range of enzyme activity. To calculate the kinetic parameters, the experimental data were fitted by non-linear regression analysis to the Hill or MWC equation, using the Microcal Origin 5.0 software (OriginLab, Northampton, MA, USA).

GDH1 = GDH1 (Rattus norvegicus, UniProt P10860); experiment: Effect of Mg2+ and spermidine on GDH1 activity; format: biochemical
Chain of GDH1 (P10860 54-558): as above
Method: as §2

[2] = system: mammalian liver and brain GDHs; set-up: method as in PMID 3701332, PMID 7588764, PMID 7190024, PMID 4052048, PMID 1366782; conditions: cited from earlier work
[3] = system: prostate cancer, renal cancer, and leukemia cell lines; set-up: method as in PMID 1372534, PMID 12820434; conditions: cited from earlier work
tumors = system: tumors; set-up: method as in PMID 10071293; conditions: clinical trials; cited from earlier work

Vmax at given ADP concentration (RLM GDH1; 0.25 mM ADP): 0.131 ± 0.113 ΔAbs/min
Vmax at given ADP concentration (RLM GDH1; 0.75 mM ADP): 0.295 ± 0.022 ΔAbs/min
Vmax at given ADP concentration (RLM GDH1; 2.1 mM ADP): 0.367 ± 0.024 ΔAbs/min
nH (Hill coefficient) for ADP (RLM GDH1; RLM, pH 7.2, Hill equation): 2.4 ± 0.3
Ka ADP (activation constant) (RLM GDH1; RLM, pH 7.2, MWC equation): 0.51 ± 0.14 (5) mM
EC50 (RLM GDH1; RLM, pH 7.2, allosteric activator, read-out: K0.5 ADP): 567 ± 125 µM
nH (Hill coefficient) for ADP (RLM GDH1; RLM, pH 7.5, Hill equation): 2.34
Ka ADP (activation constant) (RLM GDH1; RLM, pH 7.5, MWC equation): 0.11 ± 0.14 (4) mM
EC50 (RLM GDH1; RLM, pH 7.5, allosteric activator, read-out: K0.5 ADP): 285 µM
Vmax at given ADP concentration (HepM GDH1; 0.13 mM ADP): 0.037 ± 0.009 ΔAbs/min
Vmax at given ADP concentration (HepM GDH1; 0.5 mM ADP): 0.153 ± 0.008 ΔAbs/min
Vmax at given ADP concentration (HepM GDH1; 1.5 mM ADP): 0.193 ± 0.011 ΔAbs/min
Vmax at given ADP concentration (HepM GDH1; […] ADP): 0.099 ± 0.010 ΔAbs/min
nH (Hill coefficient) for ADP (HepM GDH1; HepM, pH 7.2, Hill equation): 2.77 ± 0.7
Ka ADP (activation constant) (HepM GDH1; HepM, pH 7.2, MWC equation): 0.42 ± 0.26 (3) mM
EC50 (HepM GDH1; HepM, pH 7.2, allosteric activator, read-out: K0.5 ADP): 564 ± 167 µM
nH (Hill coefficient) for ADP (HepM GDH1; HepM, pH 7.5, Hill equation): 2.6 ± 0.4
Ka ADP (activation constant) (HepM GDH1; HepM, pH 7.5, MWC equation): 0.44 ± 0.37 (3) mM
EC50 (HepM GDH1; HepM, pH 7.5, allosteric activator, read-out: K0.5 ADP): 281 ± 134 µM
Hill coefficient (nH) when varying ADP (GDH in HepM and RLM): 2.3–2.8
Compound: Nc1ncnc2c1ncn2[C@@H]1O[C@H](COP(=O)(O)OP(=O)(O)O)[C@@H](O)[C@H]1O [ADP]

Ki (RLM GDH1; RLM, pH 7.2, MWC equation): 60 ± 10 µM
IC50 (RLM GDH1; RLM, pH 7.2, reverse reaction): 139 ± 21 µM
Ki (RLM GDH1; RLM, pH 7.5, MWC equation): 31.7 ± 7 µM
IC50 (RLM GDH1; RLM, pH 7.5, reverse reaction): 244 µM
Ki (HepM GDH1; HepM, pH 7.2, MWC equation): 28 ± 27 µM
IC50 (HepM GDH1; HepM, pH 7.2, reverse reaction): 114 ± 29 µM
Ki (HepM GDH1; HepM, pH 7.5, MWC equation): 64 ± 59 µM
Compound: Nc1nc2c(ncn2[C@@H]2O[C@H](COP(=O)(O)OP(=O)(O)OP(=O)(O)O)[C@@H](O)[C@H]2O)c(=O)[nH]1 [GTP]

nH (Hill coefficient) for Leu (RLM GDH1; RLM, pH 7.2, Hill equation): 2.75
EC50 (RLM GDH1; RLM, pH 7.2, activator, read-out: K0.5 Leu): 3900 µM
nH (Hill coefficient) for Leu (HepM GDH1; HepM, pH 7.2, Hill equation): 2.8
EC50 (HepM GDH1; HepM, pH 7.2, activator, read-out: K0.5 Leu): 2600 µM
Compound: CC(C)C[C@H](N)C(=O)O [Leu, L-leucine]

Effect on GDH1 activity (GDH1; 0- to 0.4-mM added MgCl2): not affected
Inhibition of GDH1 activity (GDH1; 1 mM Mg^2+): < 10%
Inhibition of GDH1 activity (GDH1; 2 mM Mg^2+): ~ 20%
Compound: [Cl-].[Cl-].[Mg+2] [Mg^2+, MgCl2]

Km (RLM GDH1; read-out: Km NADPH, RLM, pH 7.5, Michaelis–Menten): 133 ± 28 µM
Km (HepM GDH1; read-out: Km NADPH, HepM, pH 7.2, Michaelis–Menten): 46 ± 14 µM
Km (HepM GDH1; read-out: Km NADPH, HepM, pH 7.5, Michaelis–Menten): 109 ± 4 µM
Compound: NC(=O)C1=CN([C@@H]2O[C@H](COP(=O)(O)OP(=O)(O)OC[C@H]3O[C@@H](n4cnc5c(N)ncnc54)[C@H](OP(=O)(O)O)[C@@H]3O)[C@@H](O)[C@H]2O)C=CC1 [NADPH]
Km ([1]; read-out: Km NADPH): 20 to 120 µM
Km [2]: 22 to 120 µM

Effect on GDH activity (GDH1; spermidine 0–5 mM, data not shown): innocuous
inhibition at 20000 µM (GDH1; spermidine 20 mM, data not shown, read-out: Inhibition of GDH activity): 20%
Compound: NCCCCNCCCN [Spermidine]

The next lines start with the molecule.

Compound: O=C(O)CCC(=O)C(=O)O [2-OG, 2-oxoglutarate]
Km (RLM GDH1; RLM, pH 7.2, Michaelis–Menten, read-out: Km 2-OG): 371 ± 232 µM
Km (RLM GDH1; RLM, pH 7.5, Michaelis–Menten, read-out: Km 2-OG): 396 ± 75 µM
Km ([1]; read-out: Km 2OG): 470 to 4500 µM
Km (HepM GDH1; HepM, pH 7.2, Michaelis–Menten, read-out: Km 2-OG): 442 ± 160 µM
Km (HepM GDH1; HepM, pH 7.5, Michaelis–Menten, read-out: Km 2-OG): 733 ± 325 µM

Compound: NC(=O)C1=CN([C@@H]2O[C@H](COP(=O)(O)OP(=O)(O)OC[C@H]3O[C@@H](n4cnc5c(N)ncnc54)[C@H](O)[C@@H]3O)[C@@H](O)[C@H]2O)C=CC1 [NADH]
Km [2]: 28 to 120 µM

Compound: NC(=O)c1ccc[n+]([C@@H]2O[C@H](COP(=O)([O-])OP(=O)(O)OC[C@H]3O[C@@H](n4cnc5c(N)ncnc54)[C@H](OP(=O)(O)O)[C@@H]3O)[C@@H](O)[C@H]2O)c1 [NADP^+]
Km [2]: 160 to 1220 µM

Compound: NC(=O)c1ccc[n+]([C@@H]2O[C@H](COP(=O)([O-])OP(=O)(O)OC[C@H]3O[C@@H](n4cnc5c(N)ncnc54)[C@H](O)[C@@H]3O)[C@@H](O)[C@H]2O)c1 [NAD^+]
Km [2]: 170 to 830 µM

Compound: O=C(O)CCCc1ccccc1 [Phenylbutyrate, phenylbutyrate]
Growth of cell lines [3]: arrests growth

Compound: O=C(O)Cc1ccccc1 [phenylacetate]
Growth of cell lines [3]: arrests growth
Antitumor activity (tumors): negligible antitumor activity
